Read-outs that look alike come from different tables or passages of the source.
Experiments:
9L cells [1] = assay: Cell culture survival study, 9L cells; type: cell-based, rat; conditions: for EC50: Rattus norvegicus, 9L, read-out: ED50 (the source's name)
Description: (§1) Cell Culture Survival Studies: Cells were plated in triplicate at 8×10^5 cells per 10-cm-diameter plate, and were allowed to adhere for 4 hours, after which the medium was replaced with medium containing MTX or EDX. […] Drug-free medium was then added, and three days later the cells were trypsinized and counted on a model ZM Coulter apparatus. Dose-response curves were generated using Sigma Plot 3.0, which employs curve-fitting parameters based on the Marquardt-Levenberg method (Marquardt, D. W., Siam, J., J. Soc. Indust. Appl. Math 11:431-441 (1963)).

[2] = Maximum tolerated (nonlethal) dose in nude mice
[3] = mouse, in vivo, 9 mg/kg; cited from earlier work
hepatoma cells = conditions: cited from earlier work
in vivo = conditions: nude, mouse, ip
9L cells [4] = conditions: rat, 24 h, 2 μM
Description: (§3) Thin Layer Chromatography of MTX Metabolites: 10^6 9L or 9L/FPGS cells were plated in 6-cm diameter dishes and allowed to adhere for 4 hours, after which cells were incubated overnight with 2 μM 3′, 5′, 7-[^3H] methotrexate (Moravek Biochemicals; Brea, Calif.). Cells were then trypsinized, centrifuged, resuspended in 300 μL deionized water, and sonicated for 45 seconds at half-maximal power. Sonicated cells were centrifuged briefly to remove cellular debris, after which protein concentration was calculated using the Bradford protein assay. Proteins were precipitated with 1 mL methanol at −20° C. for 2 hr. Precipitated proteins were removed by centrifugation at 20,000 g for 30 min, and the supernatant was then concentrated to 30 μL under a stream of N2 at 37° C. on a Meyer N-Evap Analytical Evaporator (Organomation Associates Inc., Northborough, Mass.). A 1 μL aliquot was scintillation counted—cpm were converted into moles of drug taken up by determining the cpm of a known quantity of [^3H] MTX. […] Plates were eluted with a chloroforrn-methanol-acetic acid mixture (2:2:1) containing 20 mg/mL cetyl trimethylammonium bromide (Sigma). Following elution, the plates were placed under ordinary fluorescent light for 2 days, after which 20 nmol unlabelled standards were visualized under long-wave ultraviolet light. Plates were run in duplicate and the average RF values of the standards were: MTX=0.66; MTX-G1=0.59; MTX-G2=0.44, MTX-G3=0.33; MTX-G4=0.27; MTX-G5=0.25. Regions corresponding to where standards migrated were marked in the sample lane, scraped individually into scintillation vials, and counted. The amount of each radioactive metabolite in a sample lane was determined as a percentage of the total radioactivity recovered from that sample lane, after subtraction of the background counts obtained from lanes lacking radioactive sample.

[5] = nude mice, five consecutive days, previous studies (Inaba 1989); cited from earlier work
9L/FPGS cells [6] = assay: Cell culture survival study, 9L/FPGS cells; type: cell-based, rat; conditions: for EC50: Rattus norvegicus, 9L/FPGS, read-out: ED50 (the source's name)
Description: as §1

9L/FPGS cells [7] = conditions: rat, 24 h, 2 μM
Description: as §3

[8] = tested on: cocultures of 9L/FPGS and 9L cells; assay: Bystander effect study, cocultures of 9L/FPGS and 9L cells; type: cell-based, rat
Description: For bystander effect studies, cells were plated in triplicate with varying combinations of 9L/FPGS and 9L cells such that the total number of cells was 8×10^5 per 10-cm-diameter plate. The same protocol of 4 hour cell adherence followed by 4 hour drug exposure, washes, growth in drug free medium for 3 days, and counting on a ZM coulter apparatus was then followed. […] Four mL conditioned medium+2 mL fresh medium were added to 10-cm-diameter plates containing 9L/BAG cells plated overnight (1000 cells/dish, with a clonogenic efficiency of approximately 20%). Six days later, the cells were fixed with 4% paraformaldehyde in PBS. Fixed cells were stained for LacZ by incubating overnight in a solution containing 35 mM potassium ferricyanide, 35 mM potassium ferrocyanide, 2 mM magnesium chloride, and 0.2% 5-bromo-4-chloro-3-indolyl-β-D galactoside (Xgal; Fisher Scientific Co.;Pittsburgh, Pa.) at pH=7.3 (Price, J., et al., Proceedings of the National Academy of Sciences USA 84:156-160 (1987)). The next day, blue colonies greater than 1 mm in diameter were counted.
However, a more quantitative approach is to generate a dose-response curve for nontransfected cells, transfected cells, and a coculture and to calculate the transmission efficiency (TE) for the coculture (Friedlos, F., et al., Journal of Medicinal Chemistry 40:1270-1275 (1997)). [formula]
The superscripts 0, N, and 100 designate the ED50 values for cultures containing 0, N, and 100% transfected cells.

[9] = tested on: subcutaneous 9L/FPGS tumors; assay: Growth of subcutaneous 9L/FPGS tumors in nude mice; type: in vivo; conditions: after three weeks
Description: (§2) In Vivo Experiments: 10^5 9L or 9L/FPGS cells or a mixture of 8×10^5 9L+2×10^5 9L/FPGS cells in 200 μL DMEM were injected subcutaneously into the flanks of six week old female nude mice (NCr/Sed, nu/nu, 20 gm; Massachusetts General Hospital breeding colony). After 14 days, when the tumors had reached an average volume of 60 mm^3, the mice were randomly divided into experimental groups with five mice per group. Intraperitoneal injections of varying MTX or EDX doses dissolved in 200 μL 0.9% NaCl were administered either daily or every third day. Tumor size was measured weekly using calipers. Tumor volume was calculated as length×width×height, as described previously (Takamiya, Y., et al., Journal of Neuroscience Research 33:493-503 (1992)).

subcutaneous 9L tumors = assay: Growth of subcutaneous 9L tumors in nude mice; type: in vivo; conditions: after three weeks
Description: as §2

U87 cells = assay: Cell culture survival study, U87 cells; type: cell-based, human
Description: Cell Culture Survival Studies: Cells were plated in triplicate at 8×10^5 cells per 10-cm-diameter plate, and were allowed to adhere for 4 hours, after which the medium was replaced with medium containing MTX or EDX. After 4 hours drug exposure, the plates were washed three times with 4 mL PBS. Drug-free medium was then added, and three days later the cells were trypsinized and counted on a model ZM Coulter apparatus. Dose-response curves were generated using Sigma Plot 3.0, which employs curve-fitting parameters based on the Marquardt-Levenberg method (Marquardt, D. W., Siam, J., J. Soc. Indust. Appl. Math 11:431-441 (1963)).

[10] = in vivo, cited from earlier work
[11] = 4 h, 4 hrs drug exposure, curves of FIG. 1 (MTX) / FIG. 3a (EDX)

## CN(Cc1cnc2nc(N)nc(N)c2n1)c1ccc(C(=O)N[C@@H](CCC(=O)O)C(=O)O)cc1 [MTX, Amethopterin]
9L cells [1]; 9L cells, 0.3 μM for 4 hours, 3 days drug-free medium
  survival: ~90%
9L cells [1]; 4 h, 4 hrs drug exposure, bystander experiment FIG. 4a
  EC50: 2700 nM
9L cells [1]; [11]
  EC50: 2900 nM
9L cells [1]; 72 h, 72 hrs drug exposure
  EC50: 40 nM
[2]
  maximum nonlethal dose: 9 mg/kg
[3]
  peak plasma level: 0.03 mM
Hepatoma cells
  total intracellular polyglutamate pool leaving the cell as monoglutamylated MTX: 43%
In vivo
  MTD: 9 mg/kg/day
9L cells [4]
  TOTAL MTX ACCUMULATED: 6.3 pmol/mg protein
  total radioactivity associated with the higher order polyglutamates MTX-G4 and G5: 14%
[5]
  maximum tolerated (nonlethal) dose (MTD): 15 mg/kg/day
9L/FPGS cells [6]; 4 hour pulses
  range of concentrations with statistically significant difference in survival between 9L and 9L/FPGS: 100 fold
9L/FPGS cells [6]; 4 hour pulses, FIG. 1 / FIG. 3A
  difference in ED50 between 9L and 9L/FPGS: 29 fold
9L/FPGS cells [6]; 4 h, 4 hrs drug exposure, bystander experiment FIG. 4a (MTX) / 4b (EDX)
  EC50: 93 nM
9L/FPGS cells [6]; [11]
  EC50: 101 nM
9L/FPGS cells [6]; 72 h, 72 hrs drug exposure
  EC50: 40 nM
9L/FPGS cells [6]; two G418-resistant clones (one designated 9L/FPGS), 0.3 μM for 4 hours, 3 days drug-free medium
  survival: approximately 40%
9L/FPGS cells [7]
  POLYGLUTAMATE DISTRIBUTION (percentages of total sample lane radioactivity): 10%
  TOTAL MTX ACCUMULATED: 12.7 pmol/mg protein
  total radioactivity associated with the higher order polyglutamates MTX-G4 and G5: 31%
[8]; Rattus norvegicus, coculture 20% 9L/FPGS + 80% 9L, 4 hrs drug exposure, FIG. 4a, read-out: ED50 (the source's name)
  EC50: 1400 nM
[8]; cocultures containing 20% 9L/FPGS cells, 4 hour pulses
  transmission efficiency (TE): 49.9%
[9]; 9 mg/kg daily i.p.
  fold growth of tumor volume: 4 fold
[9]; 9 mg/kg every third day i.p.
  fold growth of tumor volume: 9 fold
Subcutaneous 9L tumors; 9 mg/kg daily i.p.
  fold growth of tumor volume: 10 fold
Subcutaneous 9L tumors; 9 mg/kg every third day i.p.
  fold growth of tumor volume: 26 fold
U87 cells; 4 hour pulse
  ED50 of U87 higher than that of 9L: over 10 fold
U87 cells; Homo sapiens, U-87 MG, U87, 4 hrs drug exposure, 3 days drug-free, read-out: ED50 (the source's name)
  EC50: 30000 nM
[10]; 50 mg/kg
  peak plasma level: 0.1 mM
[10]
  dose at which toxic side effects are experienced: 50 mg/kg

From patent US6770632B1, “Folypolyglutamyl synthetase gene transfer to enhance antifolate” (priority 1999, dated 2004)
